In assay [1] the target is T1, rat brain N-type calcium channel subunits (α1B+α2δ+β1b cDNA subunits) (Rattus norvegicus, UniProt Q02294).
T1 construct: expressed in transfected cells; host or cells: HEK 293
Nature of the assay: N-type calcium channel block, whole cell patch clamp in HEK 293 cells. The following applies: holding potential −80 mV to +10 mV. Format: cell-based. As for the experimental part: N-type calcium channel blocking activity was assayed in human embryonic kidney cells, HEK 293, stably transfected with the rat brain N-type calcium channel subunits (α1B+α2δ+β1b cDNA subunits). Alternatively, N-type calcium channels (α1B+α2δ+β1b cDNA subunits), L-type channels (α1C+α2δ+β1b cDNA subunits) and P/Q-type channels (α1A+α2δ+β1b cDNA subunits) were transiently expressed in HEK 293 cells. Briefly, cells were cultured in Dulbecco's modified eagle medium (DMEM) supplemented with 10% fetal bovine serum, 200 U/ml penicillin and 0.2 mg/ml streptomycin at 37° C. with 5% CO2. At 85% confluency cells were split with 0.25% trypsin/1 mM EDTA and plated at 10% confluency on glass coverslips. At 12 hours the medium was replaced and the cells transiently transfected using a standard calcium phosphate protocol and the appropriate calcium channel cDNA's. Fresh DMEM was supplied and the cells transferred to 28° C./5% CO2. Cells were incubated for 1 to 2 days prior to whole cell recording.
Whole cell patch clamp experiments were performed using an Axopatch 200B amplifier (Axon Instruments, Burlingame, Calif.) linked to a personal computer equipped with pCLAMP software. The external and internal recording solutions contained, respectively, 5 mM BaCl2, 10 mM MgCl2, 10 mM HEPES, 40 mM TEACl, 10 mM glucose, 87.5 mM CsCl (pH 7.2) and 108 mM CsMS, 4 mM MgCl2, 9 mM EGTA, 9 mM HEPES (pH 7.2). Currents were typically elicited from a holding potential of −80 mV to +10 mV using Clampex software (Axon Instruments). Typically, currents were first elicited with low frequency stimulation (0.067 Hz) and allowed to stabilize prior to application of the compounds. The compounds were then applied during the low frequency pulse trains for two to three minutes to assess tonic block, and subsequently the pulse frequency was increased to 0.2 Hz to assess frequency dependent block. Data were analyzed using Clampfit (Axon Instruments) and SigmaPlot 4.0 (Jandel Scientific).
On the technique in general: In patch-clamp work, channel activity is measured electrically.

For assay [2], the target named is T2, human α1G T-type channels (Homo sapiens, UniProt O43497).
T2 construct: expressed in transfected cells; host or cells: HEK cell lines
T2 sequence (O43497 whole entry): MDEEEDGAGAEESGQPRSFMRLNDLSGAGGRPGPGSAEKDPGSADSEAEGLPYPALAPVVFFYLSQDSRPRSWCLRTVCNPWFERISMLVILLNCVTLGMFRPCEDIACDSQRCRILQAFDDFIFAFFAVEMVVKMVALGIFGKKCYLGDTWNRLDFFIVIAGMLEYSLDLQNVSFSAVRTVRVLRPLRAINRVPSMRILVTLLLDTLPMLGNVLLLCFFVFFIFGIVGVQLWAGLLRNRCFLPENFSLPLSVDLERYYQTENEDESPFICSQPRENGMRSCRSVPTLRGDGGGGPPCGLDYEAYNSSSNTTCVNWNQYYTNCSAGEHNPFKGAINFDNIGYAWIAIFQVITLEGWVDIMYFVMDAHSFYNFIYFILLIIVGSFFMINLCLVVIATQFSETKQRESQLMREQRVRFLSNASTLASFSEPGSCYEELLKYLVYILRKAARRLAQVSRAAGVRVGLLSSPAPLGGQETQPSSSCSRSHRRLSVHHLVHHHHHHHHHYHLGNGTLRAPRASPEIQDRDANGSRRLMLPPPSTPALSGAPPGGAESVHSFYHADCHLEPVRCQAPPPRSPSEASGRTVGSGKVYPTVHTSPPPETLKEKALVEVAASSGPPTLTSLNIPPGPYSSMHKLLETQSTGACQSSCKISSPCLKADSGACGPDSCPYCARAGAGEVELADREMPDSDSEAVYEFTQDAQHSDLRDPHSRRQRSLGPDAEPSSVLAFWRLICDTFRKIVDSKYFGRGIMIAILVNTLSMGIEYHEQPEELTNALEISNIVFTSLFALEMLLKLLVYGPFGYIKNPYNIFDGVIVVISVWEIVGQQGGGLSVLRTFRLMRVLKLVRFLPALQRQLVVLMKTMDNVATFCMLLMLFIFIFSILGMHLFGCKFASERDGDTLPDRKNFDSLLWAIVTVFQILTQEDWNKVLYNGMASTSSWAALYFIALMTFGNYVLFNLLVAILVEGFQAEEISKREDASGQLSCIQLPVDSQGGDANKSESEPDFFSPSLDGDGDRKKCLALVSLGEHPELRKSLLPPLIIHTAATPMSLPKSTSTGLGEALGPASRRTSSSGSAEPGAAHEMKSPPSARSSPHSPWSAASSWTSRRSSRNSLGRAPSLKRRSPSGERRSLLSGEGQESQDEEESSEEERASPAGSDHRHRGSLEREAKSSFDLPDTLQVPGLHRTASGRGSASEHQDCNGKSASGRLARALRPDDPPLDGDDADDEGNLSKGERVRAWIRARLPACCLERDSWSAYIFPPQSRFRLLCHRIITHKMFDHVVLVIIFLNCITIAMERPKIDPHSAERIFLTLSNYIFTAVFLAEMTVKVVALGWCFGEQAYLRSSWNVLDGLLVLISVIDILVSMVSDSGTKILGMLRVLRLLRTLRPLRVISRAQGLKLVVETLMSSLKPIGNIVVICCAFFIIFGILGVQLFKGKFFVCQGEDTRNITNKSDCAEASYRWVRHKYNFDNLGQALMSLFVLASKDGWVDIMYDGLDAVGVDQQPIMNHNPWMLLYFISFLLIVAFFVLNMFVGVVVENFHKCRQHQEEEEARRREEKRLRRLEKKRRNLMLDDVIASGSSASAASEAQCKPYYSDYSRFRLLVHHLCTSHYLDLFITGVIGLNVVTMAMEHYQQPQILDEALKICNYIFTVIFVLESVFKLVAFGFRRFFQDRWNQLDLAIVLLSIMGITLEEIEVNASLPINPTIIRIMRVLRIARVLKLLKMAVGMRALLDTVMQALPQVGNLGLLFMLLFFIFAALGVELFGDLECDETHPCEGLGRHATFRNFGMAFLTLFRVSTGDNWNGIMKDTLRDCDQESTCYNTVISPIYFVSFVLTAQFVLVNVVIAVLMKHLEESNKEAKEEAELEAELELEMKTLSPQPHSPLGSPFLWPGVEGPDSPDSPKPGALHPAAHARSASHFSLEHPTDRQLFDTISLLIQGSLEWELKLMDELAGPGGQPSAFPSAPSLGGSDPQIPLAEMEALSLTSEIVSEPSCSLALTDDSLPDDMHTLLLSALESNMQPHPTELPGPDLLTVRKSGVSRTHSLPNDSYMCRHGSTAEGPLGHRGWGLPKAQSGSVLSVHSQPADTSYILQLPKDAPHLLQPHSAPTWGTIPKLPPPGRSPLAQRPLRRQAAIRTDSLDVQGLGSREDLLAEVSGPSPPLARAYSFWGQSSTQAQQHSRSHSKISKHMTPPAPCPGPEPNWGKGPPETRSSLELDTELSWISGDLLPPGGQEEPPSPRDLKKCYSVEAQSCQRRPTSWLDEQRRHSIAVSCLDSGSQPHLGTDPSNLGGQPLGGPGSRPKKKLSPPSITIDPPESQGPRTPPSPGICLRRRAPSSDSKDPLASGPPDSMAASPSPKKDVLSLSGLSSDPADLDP
Briefly: T-type calcium channel block, patch clamp in HEK cell lines. The class given is cell-based. As for the experimental part: Standard patch-clamp techniques were employed to identify blockers of T-type currents. Briefly, previously described HEK cell lines stably expressing human α1G T-type channels were used for all the recordings (passage #: 4-20, 37° C., 5% CO2). To obtain T-type currents, plastic dishes containing semi-confluent cells were positioned on the stage of a ZEISS AXIOVERT S100 microscope after replacing the culture medium with external solution (see below). Whole-cell patches were obtained using pipettes (borosilicate glass with filament, O.D.: 1.5 mm, I.D.: 0.86 mm, 10 cm length), fabricated on a SUTTER P-97 puller with resistance values of ˜5 MΩ (see below for internal solution).
T-type currents were reliably obtained by using two voltage protocols: • (1) “non-inactivating”, and (2) “inactivation”
In the non-inactivating protocol, the holding potential is set at −110 mV and with a pre-pulse at −100 mV for 1 second prior to the test pulse at −40 mV for 50 ms. In the inactivation protocol, the pre-pulse is at approximately −85 mV for 1 second, which inactivates about 15% of the T-type channels.
Test compounds were dissolved in external solution, 0.1-0.01% DMSO. After ˜10 min rest, they were applied by gravity close to the cell using a WPI microfil tubing. The “non-inactivated” pre-pulse was used to examine the resting block of a compound. The “inactivated” protocol was employed to study voltage-dependent block. However, the initial data shown below were mainly obtained using the non-inactivated protocol only. IC50 values are shown for various compounds of the invention in Table 5.

Setting [3] is: low frequency stimulation 0.067 Hz (tonic block), read-out: IC50 @ 0.067 Hz.
Where [4] appears, read: pulse frequency 0.2 Hz (frequency dependent block), read-out: IC50 @ 0.2 Hz.
The mark [5] stands for this setting: non-inactivating protocol, pre-pulse −100 mV (resting block), read-out: IC50 @ −100 mV.
Setting [6] is: −80 mV (inactivation protocol, voltage-dependent block), read-out: IC50 @ −80 mV.

Molecules are shown by their SMILES. Where two headings read alike, the source gives them in different places.

T1 sequence (Q02294 whole entry): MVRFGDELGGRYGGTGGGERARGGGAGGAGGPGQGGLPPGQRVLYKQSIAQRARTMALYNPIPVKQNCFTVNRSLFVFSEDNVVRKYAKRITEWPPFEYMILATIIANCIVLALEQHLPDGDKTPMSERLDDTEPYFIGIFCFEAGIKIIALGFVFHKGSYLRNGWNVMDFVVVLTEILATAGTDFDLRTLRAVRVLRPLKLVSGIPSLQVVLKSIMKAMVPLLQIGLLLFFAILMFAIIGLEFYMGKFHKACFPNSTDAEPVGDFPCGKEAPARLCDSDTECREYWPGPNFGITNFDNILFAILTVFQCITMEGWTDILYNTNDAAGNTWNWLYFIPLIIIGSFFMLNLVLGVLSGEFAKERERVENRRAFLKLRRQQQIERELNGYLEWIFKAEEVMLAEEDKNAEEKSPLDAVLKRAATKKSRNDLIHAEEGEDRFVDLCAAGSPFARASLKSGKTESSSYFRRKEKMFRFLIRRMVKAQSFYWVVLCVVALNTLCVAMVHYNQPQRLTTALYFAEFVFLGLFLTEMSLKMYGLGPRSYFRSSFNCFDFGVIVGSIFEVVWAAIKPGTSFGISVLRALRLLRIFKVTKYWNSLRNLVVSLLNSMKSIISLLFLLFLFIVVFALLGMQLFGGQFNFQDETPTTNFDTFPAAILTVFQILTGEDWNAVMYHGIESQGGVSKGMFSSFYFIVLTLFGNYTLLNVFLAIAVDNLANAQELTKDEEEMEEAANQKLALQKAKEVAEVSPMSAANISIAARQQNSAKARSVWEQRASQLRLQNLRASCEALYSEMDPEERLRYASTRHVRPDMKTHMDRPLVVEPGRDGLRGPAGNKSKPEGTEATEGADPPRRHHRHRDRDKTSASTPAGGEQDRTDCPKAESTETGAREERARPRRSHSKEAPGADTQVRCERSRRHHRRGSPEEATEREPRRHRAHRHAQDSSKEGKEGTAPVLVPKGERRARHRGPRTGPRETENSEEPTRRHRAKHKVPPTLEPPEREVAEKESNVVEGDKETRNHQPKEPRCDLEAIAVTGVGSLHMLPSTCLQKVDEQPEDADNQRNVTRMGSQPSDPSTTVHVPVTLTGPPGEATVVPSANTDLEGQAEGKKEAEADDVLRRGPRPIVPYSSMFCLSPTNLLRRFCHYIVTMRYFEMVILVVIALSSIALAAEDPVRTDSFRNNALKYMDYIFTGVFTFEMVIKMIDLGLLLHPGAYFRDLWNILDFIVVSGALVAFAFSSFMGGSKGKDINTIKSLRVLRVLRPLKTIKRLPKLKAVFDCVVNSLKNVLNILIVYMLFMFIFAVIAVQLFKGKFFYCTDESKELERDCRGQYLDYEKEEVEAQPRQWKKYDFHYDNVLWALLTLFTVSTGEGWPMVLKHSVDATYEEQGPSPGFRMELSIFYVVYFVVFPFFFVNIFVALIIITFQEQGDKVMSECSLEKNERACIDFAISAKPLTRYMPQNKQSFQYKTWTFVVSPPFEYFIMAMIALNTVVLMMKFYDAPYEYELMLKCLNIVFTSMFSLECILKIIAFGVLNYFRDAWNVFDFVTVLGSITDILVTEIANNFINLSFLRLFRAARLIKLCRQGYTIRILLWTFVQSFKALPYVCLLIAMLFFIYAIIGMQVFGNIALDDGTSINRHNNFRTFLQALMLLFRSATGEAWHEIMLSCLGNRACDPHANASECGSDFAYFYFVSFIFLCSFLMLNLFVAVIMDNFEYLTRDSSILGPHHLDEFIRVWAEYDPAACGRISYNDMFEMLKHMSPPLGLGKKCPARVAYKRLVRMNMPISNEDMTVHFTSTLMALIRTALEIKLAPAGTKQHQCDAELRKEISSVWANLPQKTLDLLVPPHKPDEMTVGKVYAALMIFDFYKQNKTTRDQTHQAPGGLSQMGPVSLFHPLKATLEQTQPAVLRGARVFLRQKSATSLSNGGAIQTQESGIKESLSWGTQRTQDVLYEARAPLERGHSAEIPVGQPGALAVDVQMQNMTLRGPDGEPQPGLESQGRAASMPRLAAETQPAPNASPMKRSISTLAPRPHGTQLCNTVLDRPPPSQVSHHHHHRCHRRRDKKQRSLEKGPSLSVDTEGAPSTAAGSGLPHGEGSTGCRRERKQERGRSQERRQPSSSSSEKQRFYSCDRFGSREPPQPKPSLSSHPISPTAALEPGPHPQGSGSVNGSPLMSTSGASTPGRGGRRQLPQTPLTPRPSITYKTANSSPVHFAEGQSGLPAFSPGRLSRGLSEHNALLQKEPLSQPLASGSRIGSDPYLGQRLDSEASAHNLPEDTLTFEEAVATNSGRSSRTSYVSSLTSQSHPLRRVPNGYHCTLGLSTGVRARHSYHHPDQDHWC

Usually IC50 stands for the concentration needed to halve the response being measured. On to `O=C(CC(c1ccccc1)c1ccccc1)NCC#CCN(Cc1ccncc1)Cc1ccncc1` [Compound P30, N-[4-(Bis-pyridin-4-ylmethyl-amino)-but-2-ynyl]-3,3-diphenyl-propionamide], for which the IC50 was found to be 340 nM in assay [1] (setting [3]), 330 nM in assay [1] (setting [4]), 82 nM in assay [2] (setting [5]) and 21 nM in assay [2] (setting [6]).
Turning to `O=C(CCCCC(c1ccc(F)cc1)c1ccc(F)cc1)NC/C=C/CNC(=O)c1ccc(F)cc1` [Compound P20, N-{(E)-4-[6,6-Bis-(4-fluoro-phenyl)-hexanoylamino]-but-2-enyl}-4-fluoro-benzamide], the IC50 in assay [1] (setting [3]) is 188 nM; in assay [1] (setting [4]), 134 nM; in assay [2] (setting [5]), 126 nM; in assay [2] (setting [6]), 43 nM.
With `O=C(CCCCC(c1ccc(F)cc1)c1ccc(F)cc1)NC/C=C/CNC(=O)c1ccc(Cl)cc1` [Compound P18, N-{(E)-4-[6,6-Bis-(4-fluoro-phenyl)-hexanoylamino]-but-2-enyl}-4-chloro-benzamide], the IC50 in assay [1] (setting [3]) was 809 nM; in assay [1] (setting [4]) it was 305 nM; in assay [2] (setting [5]) it was 149 nM; in assay [2] (setting [6]), 39 nM.
For `CC(C)c1ccc(C(=O)NCC#CCNC(=O)CCCCC(c2ccc(F)cc2)c2ccc(F)cc2)cc1` [Compound P25, N-{4-[6,6-Bis-(4-fluoro-phenyl)-hexanoylamino]-but-2-ynyl}-4-isopropyl-benzamide], the IC50 in assay [1] (setting [3]) came to 770 nM; in assay [1] (setting [4]), 760 nM; in assay [2] (setting [5]), 1000 nM; in assay [2] (setting [6]) it was 424 nM.
The matching figures for `O=C(CCCCC(c1ccc(F)cc1)c1ccc(F)cc1)NCCCCNC(=O)COc1ccc(Cl)cc1` [Compound P36, 6,6-Bis-(4-fluoro-phenyl)-hexanoic acid{4-[2-(4-chloro-phenoxy)-acetylamino]-butyl}-amide]: 39 nM, 10 nM, 63 nM and 29 nM.
Consider `COc1cc(C(=O)NCC#CCNC(=O)CCCCC(c2ccc(F)cc2)c2ccc(F)cc2)cc(OC)c1OC` [Compound P22, N-{4-[6,6-Bis-(4-fluoro-phenyl)-hexanoylamino]-but-2-ynyl}-3,4,5-trimethoxy-benzamide], for which the IC50 in assay [1] (setting [3]) came to 237 nM; in assay [1] (setting [4]) it was 139 nM; in assay [2] (setting [5]) it was 358 nM; in assay [2] (setting [6]), 78 nM.
With `Cc1ccc(C(=O)NC/C=C/CNC(=O)CCCCC(c2ccc(F)cc2)c2ccc(F)cc2)cc1` [Compound P19, N-{(E)-4-[6,6-Bis-(4-fluoro-phenyl)-hexanoylamino]-but-2-enyl}-4-methyl-benzamide], the IC50 in assay [1] (setting [3]) was found to be 182 nM; in assay [1] (setting [4]), 132 nM; in assay [2] (setting [5]), 22 nM; in assay [2] (setting [6]) it was 9 nM.
Regarding `CC(C)(C)c1cc(C(=O)NC/C=C/CNC(=O)CCCCC(c2ccc(F)cc2)c2ccc(F)cc2)cc(C(C)(C)C)c1O` [Compound P13, N-{(E)-4-[6,6-Bis-(4-fluoro-phenyl)-hexanoylamino]-but-2-enyl}-3,5-di-tert-butyl-4-hydroxy-benzamide], the half-inhibitory concentration (IC50) in assay [1] (setting [3]) worked out at 790 nM; in assay [1] (setting [4]), 540 nM.
With `CC(C)c1ccc(C(=O)NC/C=C\CNC(=O)CCCCC(c2ccc(F)cc2)c2ccc(F)cc2)cc1` [Compound P7, N-{(Z)-4-[6,6-Bis-(4-fluoro-phenyl)-hexanoylamino]-but-2-enyl}-4-isopropyl-benzamide], the IC50 in assay [1] (setting [3]) amounted to 97 nM; in assay [1] (setting [4]), 54 nM; in assay [2] (setting [5]) it was 196 nM; in assay [2] (setting [6]), 56 nM.
Take `COc1cc(C(=O)NC/C=C/CNC(=O)CCCCC(c2ccc(F)cc2)c2ccc(F)cc2)cc(OC)c1OC` [Compound P11, N-{(E)-4-[6,6-Bis-(4-fluoro-phenyl)-hexanoylamino]-but-2-enyl}-3,4,5-trimethoxy-benzamide]: the IC50 was determined as 331 nM in assay [1] (setting [3]), 196 nM in assay [1] (setting [4]), 155 nM in assay [2] (setting [5]) and 51 nM in assay [2] (setting [6]).
On to `COc1cc(C(=O)NC/C=C\CNC(=O)CCCCC(c2ccc(F)cc2)c2ccc(F)cc2)cc(OC)c1OC` [Compound P1, N-{(Z)-4-[6,6-Bis-(4-fluoro-phenyl)-hexanoylamino]-but-2-enyl}-3,4,5-trimethoxy-benzamide], for which the results for the IC50 in assay [1] (setting [3]) and in assay [1] (setting [4]) were 230 nM and 190 nM, respectively.
As to `O=C(CC(c1ccccc1)c1ccccc1)NCC#CCN(Cc1cccnc1)Cc1cccnc1` [Compound P31, N-[4-(Bis-pyridin-3-ylmethyl-amino)-but-2-ynyl]-3,3-diphenyl-propionamide], the IC50 in assay [1] (setting [3]) turned out to be 420 nM; in assay [1] (setting [4]), 420 nM; in assay [2] (setting [5]), 94 nM; in assay [2] (setting [6]) it was 27 nM.
For `CC(C)(C)c1ccc(C(=O)NCCCCNC(=O)CCCCC(c2ccc(F)cc2)c2ccc(F)cc2)cc1` [Compound P34, N-{4-[6,6-Bis-(4-fluoro-phenyl)-hexanoylamino]-butyl}-4-tert-butyl-benzamide], the IC50 in assay [1] (setting [3]) turned out to be 291 nM; in assay [1] (setting [4]), 165 nM; in assay [2] (setting [5]), 177 nM; in assay [2] (setting [6]), 141 nM.
For the compound `COc1c(C(C)(C)C)cc(C(=O)NC/C=C\CNC(=O)CCCCC(c2ccc(F)cc2)c2ccc(F)cc2)cc1C(C)(C)C` [Compound P2, N-{(Z)-4-[6,6-Bis-(4-fluoro-phenyl)-hexanoylamino]-but-2-enyl}-3,5-di-tert-butyl-4-methoxy-benzamide], the IC50 in assay [1] (setting [3]) was determined as 430 nM; in assay [1] (setting [4]), 310 nM.
On to `O=C(CC(c1ccccc1)c1ccccc1)NC/C=C/CN(Cc1ccncc1)Cc1ccncc1` [Compound P21, N-[(E)-4-(Bis-pyridin-4-ylmethyl-amino)-but-2-enyl]-3,3-diphenyl-propionamide], for which the half-inhibitory concentration (IC50) was 514 nM in assay [1] (setting [3]), 278 nM in assay [1] (setting [4]), 423 nM in assay [2] (setting [5]) and 163 nM in assay [2] (setting [6]).
The matching figures for `COc1c(C(C)(C)C)cc(C(=O)NC/C=C/CNC(=O)CCCCC(c2ccc(F)cc2)c2ccc(F)cc2)cc1C(C)(C)C` [Compound P12, N-{(E)-4-[6,6-Bis-(4-fluoro-phenyl)-hexanoylamino]-but-2-enyl}-3,5-di-tert-butyl-4-methoxy-benzamide]: 220 nM, 146 nM, 112 nM and 34 nM.
`CC(C)(C)c1ccc(C(=O)NC/C=C/CNC(=O)CCCCC(c2ccc(F)cc2)c2ccc(F)cc2)cc1` [Compound P14, N-{(E)-4-[6,6-Bis-(4-fluoro-phenyl)-hexanoylamino]-but-2-enyl}-4-tert-butyl-benzamide]: the IC50 in assay [1] (setting [3]) was 510 nM; in assay [1] (setting [4]) it was 380 nM.
On to `O=C(CCCCC(c1ccc(F)cc1)c1ccc(F)cc1)NC/C=C/CNC(=O)COc1ccc(Cl)cc1` [Compound P16, 6,6-Bis-(4-fluoro-phenyl)-hexanoic acid{(E)-4-[2-(4-chloro-phenoxy)-acetylamino]-but-2-enyl}-amide], for which the IC50 in assay [1] (setting [3]) is 52 nM; in assay [1] (setting [4]) it was 15 nM; in assay [2] (setting [5]), 26 nM; in assay [2] (setting [6]), 7 nM.
Turning to `CC(C)(C)c1cc(C(=O)NC/C=C\CNC(=O)CCCCC(c2ccc(F)cc2)c2ccc(F)cc2)cc(C(C)(C)C)c1O` [Compound P3, N-{(Z)-4-[6,6-Bis-(4-fluoro-phenyl)-hexanoylamino]-but-2-enyl}-3,5-di-tert-butyl-4-hydroxy-benzamide], the values for the IC50 in assay [1] (setting [3]) and in assay [1] (setting [4]) were 470 nM and 270 nM, respectively.

These data come from US7511077B2, “Diamine calcium channel blockers” (Neuromed Pharmaceuticals Ltd., priority 2005, dated 2009).
